Data as given in patent US20050192341A1, “Non-psychotropic cannabinoids for prevention of cognitive impairment” (priority 2002, published 2005).

Tests used:
[1] = test system: individuals suffering from severe traumatic brain injury; details: severe traumatic brain injury patients; not significant statistically; cited from earlier work
[2] = test system: Sprague-Dawley male rats; assay: Cognitive impairment assessment following 4 VO, Morris water maze; format: in vivo, rat
Procedure: One week after CCA occlusion, the cognitive impairment was measured using a Morris water maze apparatus. The ability of the animals to perform in this test is predictive of their learning and memory capacity. A circular metal pool 150 cm in diameter and 74 cm in height was filled with water at 25° C. to a height of 54 cm. A platform 10 cm in diameter was placed 2 cm below the water surface. The pool was divided (virtually) into 4 equal surface areas identified by arbitrary north, south, east and west coordinates. The platform was located in the middle of the southwest quadrant 25 cm from the pool rim. The swim path was monitored by video camera connected to a computer (View Point, France). […] Animals that found the hidden platform were allowed to stay on it for 30 seconds.
Animals were tested in nine consecutive trials one week following the 4 VO and the learning capacity was measured as the amount of time spent by the animal swimming before finding the hidden platform. Each trial was performed for 1 minute and there were 5 minute intervals between the trials. One day later, eight days post-occlusion, the animals were tested again in order to assess their memory.
Three groups of at least 8 animals each were tested in this study: 1) sham operated animals; 2) operated animals treated 15 minutes before CCA occlusion with HPCD vehicle; 3) operated animals treated 15 minutes before CCA occlusion with 8 mg/kg dexanabinol, prepared and injected intravenously as previously described in example 2.
The average latency time in seconds elapsed until platform localization was calculated for each treatment group as an average of three consecutive trials. […] During the first six trials dexanabinol treated animals learned similarly to vehicle treated animals.

[3] = test system: Sprague-Dawley male rats; assay: Four vessel occlusion (4 VO) in rats, neurological score; format: in vivo, rat
Text: This model was used to test the ability of dexanabinol or related compounds to act as neuroprotectant when administered prior to surgery. The blood supply to the rat brain arrives via the two vertebral and two common carotid arteries. Transient occlusion of all four vessels results in global ischemia, as would occur during cardiac arrest in humans. Global ischemia results in neurological deficits, including short-term memory deficits, and a selective loss of neurons, including pyramidal cells, in the CA1 field of the hippocampus, similarly to the situation observed in MCI. The ability of compounds to reduce the neurological deficits and increase neuronal survival in this model is considered indicative of their potential in preventing brain damage related to cardiac arrest, and is also predictive for ischemic damages and MCI caused by surgery, for instance cardiac surgery performed or not under cardiopulmonary bypass. […] Transient ischemia causes irreversible injury to a few, specific populations of highly vulnerable neurons.
Sprague-Dawley male rats (180-400 g body weight, Anilab, Israel) were anesthetized using 4% halothane for induction and 1% halothane for maintenance, in a mixture of 70% N2O and 30% O2. Animals were submitted to four-vessel occlusion according to the procedure of Pulsinelli et al. (Pulsinelli W. A. et al., Stroke 10: 267, 1979) in a two-stage operation. On the first day the vertebral arteries were occluded. A midline skin incision was performed above the spinal cord behind the skull occipital bone. Muscles were separated and cut until the C1 vertebra was isolated. The alar foramina were located and the vertebral arteries were coagulated via the alar foramina. Muscles and skin were closed in two layers. On the same day, the common carotid arteries (CCA) were isolated through a central neck midline incision. A loose suture material was positioned around them and the skin was closed.
On the second day, the animals were lightly anesthetized using ether. The skin was opened and CCA were closed for 20 minutes with arterial clips. Animals were deprived of food, with free access to water, overnight between the two stages of the study. Loss of righting reflex was the principal criterion for assuring severe forebrain ischemia in the 4 VO model in the rat. Therefore, animals not showing this sign were not included in the study. […]
Animals were monitored for their general clinical appearance at predetermined time points: before vertebral occlusion; before and 5 hours after CCA occlusion; then 1, 2, and 3 days after CCA occlusion. Body weight was recorded at baseline and at each follow-up session.
The total neurological score was calculated by adding the results of all tests for each animal and the maximal score obtainable for normal animals is 16 points. […]

[4] = test system: Sprague Dawley rats; assay: Neuronal vacuolization and necrosis histopathology after single high dose injection in rats; format: in vivo, rat; details: for Average number of vacuoles / Average number of necrotic foci: males and females, all sections; for Average number of vacuoles / Number of animals with necrotic foci: dexanabinol 50 mg/kg i.v.; for Average number of vacuoles / Average number of necrotic foci / Number of animals with necrotic foci / Clinical signs post-dose: MK-801 5 mg/kg s.c.; for Average number of necrotic foci: dexanabinol 50 mg/kg i.v. in CREMOPHOR EL:ethanol; for Number of animals with necrotic foci: cingulated gyrus, males and females combined; for Clinical signs post-dose: study day 1, dexanabinol 50 mg/kg i.v. (undistinguishable from vehicle, transient)
Text: The purpose of this study was to characterize the potential of dexanabinol to protect against neuronal vacuolization and cell death in the retrosplenial and cingulated neocortex regions of the brain in Sprague Dawley rats following intravenous administration of a single high dose of […]. It has previously been reported that neuronal vacuolization and cell death are among the commonly detected adverse side effects of NMDA antagonists in rodents (Olney J. W. et al., Science 244: 1360-2, 1989).
Sprague Dawley rats (140-250 g body weight, Charles River Laboratory, Mich., USA) were maintained under controlled environmental conditions, with 12:12 hour light dark cycle, and had free access to food and water. The animals were acclimated for at least seven days prior to study day 1. Animals were randomly assigned to the following treatment groups: saline (negative control), CREMOPHOR EL®:ethanol (70:30 w/w respectively supplemented with 0.5% w/v dl-α-tocopherol and 0.01% w/v edetic acid; vehicle) and 50 mg/kg dexanabinol. For all groups the volume dosage was 10 ml/kg and the treatments were administered via bolus intravenous injection into the lateral tail vein of animals. CREMOPHOR EL®:ethanol and dexanabinol 50 mg/ml were diluted 1:10 into saline prior to injection. M-801 at a dose of 5 mg/kg administered subcutaneously at a volume dosage of 5 ml/kg was used as positive control, its vehicle being saline.
Each treatment group consisted of six males and six females, which were at first analyzed separately to assess gender influence. Clinical observations, including observations for mortality or moribundity, were recorded pretest, once daily, and when a change was noted during the twice-daily observations. Body weights were recorded pretest and predose on study day 1. Six animals per sex per group per time point were submitted for necropsy at approximately 4 and 12 hours post-dose, and 1, 3, and 7 days post-dose. At the predetermined time points, the animals were humanely euthanized via intraperitoneal injection of 100 mg/kg sodium pentobarbital to achieve deep anesthesia.
Whole body perfusion were performed using heparinized saline for approximately one minute followed by 10% neutral buffered fornalin for approximately eight to ten minutes on all animals. The calvarium was removed, leaving the brain in the cranial cavity. The heads (with the brain in the cranial cavity) or brains (removed only after 24 hours left in situ in 10% neutral buffered formalin) were placed into 10% neutral buffered formalin until further process toward pathological analysis.
The brains from all animals at all time points were processed and evaluated as follows. The brains from the 4 and 12 hours time point animals were removed and sectioned using a rat brain trimming matrix to yield two coronal sections including the posterior cingulated gyrus (retrosplenial area of the brain). All sections were embedded in glycol methacrylate, sectioned at approximately 2 microns, and stained with hematoxylin and eosin. Brains from the 1, 3 and 7 days post-dose animals were removed and sectioned to yield three coronal sections spanning the brain from the posterior cingulate gyrus and extending rostral to the level of the basal nuclei. These sections were embedded in paraffin and sectioned twice at approximately 5-8 microns, with one section stained with hematoxylin and eosin and the other with Fluoro-Jade B, which selectively stains dying neuronal cells. The slides were microscopically evaluated in a blinded fashion. No statistical analyses were performed.

SMILES	Neurological outcome as assessed by the Galveston Orientation and Amnesia Test [1]	Average time to localize the hidden platform ([2]; average over the ten trials measuring learning and memory, 8 mg/kg i.v., sham 34.8 seconds)	Time less than sham operated animals to localize the hidden platform ([2]; average over the ten trials, 8 mg/kg i.v., difference not statistically significant)	Reduction in average time for platform localization over vehicle treated animals (memory) ([2]; day 8 post-occlusion, 8 mg/kg i.v. 15 minutes before CCA occlusion)	Reduction in average time for platform localization over vehicle control group (learning) ([2]; last three of nine trials, one week after 4 VO, 8 mg/kg i.v. 15 minutes before CCA occlusion)	Time to full recovery of neurological score to sham animals levels ([3]; 8 mg/kg i.v. 15 minutes before CCA occlusion)	Decrease in neurological score ([3]; 5 hours after occlusion, 8 mg/kg i.v. 15 minutes before CCA occlusion, maximal score 16 points)	Neurological score compared with sham operated group ([3]; 48 hours post-occlusion, 8 mg/kg i.v.)	Neurological outcome compared with vehicle treated or operated untreated animals ([3]; from 24 hours post-occlusion on, 8 mg/kg i.v.)	Average number of vacuoles ([4]; 4 hrs post-dosing)	Average number of vacuoles ([4]; 12 hrs post-dosing)	Average number of necrotic foci ([4]; Day 1 post-dosing)	Average number of necrotic foci ([4]; Day 3 post-dosing)	Average number of necrotic foci ([4]; Day 7 post-dosing)	Number of animals with necrotic foci ([4]; Day 1 post-dosing)	Number of animals with necrotic foci ([4]; Day 3 post-dosing)	Number of animals with necrotic foci ([4]; Day 7 post-dosing)	Highest tolerated dose in rats ([4]; single dose, to the first approximation)	Clinical signs post-dose [4]
CCCCCCC(C)(C)c1cc(O)c2c(c1)OC(C)(C)[C@H]1CC=C(CO)C[C@H]21 [Dexanabinol, 1,1-dimethyl-(3S,4S)-7-hydroxy-Δ^6-tetrahydrocannabinol]	trend existed for the dexanabinol treated patients to achieve better neurological outcome	30.8 s	4 s	~22%	more than 42%	≤ 72 hours	about 4 points	not statistically different from the sham operated group	significantly better neurological outcome	None	None	0.5	0.6	>3	0/12	0/12	0/12	~50 mg/kg	prostration and decreased activity
C[C@]12N[C@H](Cc3ccccc31)c1ccccc12 [MK-801, reference compound]																			ataxia, tremors and prostration
